Test results from patent publication US10021881B2, “Vaporized administration of pesticides” (priority 2016, dated 2018).

Key:
Penicillium digitatum = experiment: In vivo assay of vaporized pyrimethanil to inhibit Penicillium digitatum in oranges
Procedure: An in vivo assay was used to evaluate the ability of vaporized pyrimethanil to control pathogenic infection of oranges by Penicillium digitatum. […] Each wound was then inoculated with 30 μL of 1×10^6 spores/mL suspension of P. digitatum.
Fruits were evaluated in order to observe growth of water-soaked lesions and fungal sporulation diameter (both measured in millimeters, mm).

Botrytis cinerea [1] = experiment: In vivo assay of vaporized pyrimethanil to inhibit Botrytis cinerea in grapes; conditions: for Gray Mold Severity (0-4): scale 0 no disease to 4 exceptionally high
Excerpt: An in vivo assay was used to evaluate the ability of vaporized pyrimethanil to control pathogenic infection of Table grapes by Botrytis cinerea.

Botrytis cinerea [2] = experiment: In vivo assay of vaporized pyrimethanil to inhibit Botrytis cinerea in blueberries; conditions: for Gray Mold Severity (0-4): scale 0 no disease to 4 exceptionally high
Excerpt: An in vivo assay was used to evaluate the ability of vaporized pyrimethanil to control pathogenic infection of blueberries by Botrytis cinerea.

Penicillium expansum = experiment: Drenching vs. vaporizing treatments of apples, browning; format: in vivo; conditions: for Percent (%) Inhibition of Internal Browning: apples stored nine weeks at 1° C.
Procedure: An in vivo assay was used to evaluate the ability of vaporized pyrimethanil to control pathogenic infection of apples by Penicillium expansum as compared to drenching methods of apple treatment. Vaporized treatments of apples were performed as previous described in Examples 1-6, with the exception of using a 1 m wide×1 m high×8 m deep tunnel (see FIG. 11). […] In addition, drenching treatments comprising a final concentration of 125 mg/L, 500 mg/L, and 2000 mg/L of pyrimethanil active ingredient were also prepared. Fruits were stored for nine weeks at 1° C., and evaluated in order to observe and/or determine the area of browning on the fruit (see FIG. 22) and the percent of browning inhibition (see Table 7).

[3] = Particle size estimate from settling of fogged or vaporized pyrimethanil on Petri plates (HPLC); format: physicochemical; conditions: for estimated pyrimethanil particle size: vaporized
Botrytis cinerea [4] = experiment: In vivo assay of vaporized pyrimethanil to inhibit Botrytis cinerea in strawberries; conditions: for Gray Mold Severity (0-4): scale 0 no disease to 4 exceptionally high
Procedure: Eight strawberries (per repetition, in triplicate) were placed in an industry standard clamshell with the stem facing down. […] Clamshells were then placed at the bottom of a 36-L acrylic desiccator chamber in triplicate.
An appropriate amount of pyrimethanil to achieve a final headspace concentration of 1 mg/L, 0.3 mg/L, 0.1 mg/L, or 0.03 mg/L was dissolved in acetone and 100 μL of the solution was pipetted into a small glass tube. This tube was then placed inside a preheated vaporization device (0.5″ OD by 6″ long thermostatically heated copper tube mounted to a 0.5 L/min low flow fan) set at 60° C. for 1 minute to allow the acetone to evaporate, leaving behind the solid crystals of pyrimethanil.
Pyrimethanil was then introduced into the cabinets of the chamber through the bulkhead port by using the vaporization device as described in Example 1 set at 180° C. The chambers were then incubated at 21° C. for three (3) days. After incubation, fruits were evaluated daily for an additional 3 days at 21° C. Fruits were evaluated in order to observe percentage of disease incidence (%) and severity of disease. Disease severity was rated on a scale ranging from 0 to 4, where “0” indicated no disease severity, “1” indicated minimal disease severity, “2” indicated medium disease severity, “3” indicated high disease severity, and “4” indicated exceptionally high disease severity.

[5] = 0.04 mg/L, Day 0 (after 3 days at 21° C.)
[6] = 0.04 mg/L, Day 1 (after 3 days at 21° C.)
[7] = 0.04 mg/L, Day 2 (after 3 days at 21° C.)
[8] = 0.2 mg/L, Day 0 (after 3 days at 21° C.)
[9] = 0.2 mg/L, Day 1 (after 3 days at 21° C.)
[10] = 0.2 mg/L, Day 2 (after 3 days at 21° C.)
[11] = 1 mg/L, Day 0 (after 3 days at 21° C.)
[12] = 1 mg/L, Day 1 (after 3 days at 21° C.)
[13] = 1 mg/L, Day 2 (after 3 days at 21° C.)
[14] = 0.01 mg/L, Day 0 (after 3 days at 21° C.)
[15] = 0.01 mg/L, Day 1 (after 3 days at 21° C.)
[16] = 0.01 mg/L, Day 2 (after 3 days at 21° C.)
[17] = 0.01 mg/L, Day 3 (after 3 days at 21° C.)
[18] = 0.03 mg/L, Day 0 (after 3 days at 21° C.)
[19] = 0.03 mg/L, Day 1 (after 3 days at 21° C.)
[20] = 0.03 mg/L, Day 2 (after 3 days at 21° C.)
[21] = 0.03 mg/L, Day 3 (after 3 days at 21° C.)
[22] = 0.1 mg/L, Day 0 (after 3 days at 21° C.)
[23] = 0.1 mg/L, Day 1 (after 3 days at 21° C.)
[24] = 0.1 mg/L, Day 2 (after 3 days at 21° C.)
[25] = 0.1 mg/L, Day 3 (after 3 days at 21° C.)
[26] = 0.3 mg/L, Day 0 (after 3 days at 21° C.)
[27] = 0.3 mg/L, Day 1 (after 3 days at 21° C.)
[28] = 0.3 mg/L, Day 2 (after 3 days at 21° C.)
[29] = 0.3 mg/L, Day 3 (after 3 days at 21° C.)
[30] = 1 mg/L, Day 3 (after 3 days at 21° C.)

Cc1cc(C)nc(Nc2ccccc2)n1 [pyrimethanil, 4,6-Dimethyl-N-phenylpyrimidin-2-amine]
Fungal Sporulation (mm) (Penicillium digitatum; [5]): 1.1 mm
Water soaked Lesion (mm) (Penicillium digitatum; [5]): 0.0 mm
Fungal Sporulation (mm) (Penicillium digitatum; [6]): 1.4 mm
Water soaked Lesion (mm) (Penicillium digitatum; [6]): 0.0 mm
Fungal Sporulation (mm) (Penicillium digitatum; [7]): 2.1 mm
Water soaked Lesion (mm) (Penicillium digitatum; [7]): 0.0 mm
Fungal Sporulation (mm) (Penicillium digitatum; [8]): 0.6 mm
Water soaked Lesion (mm) (Penicillium digitatum; [8]): 0.0 mm
Fungal Sporulation (mm) (Penicillium digitatum; [9]): 0.8 mm
Water soaked Lesion (mm) (Penicillium digitatum; [9]): 0.0 mm
Fungal Sporulation (mm) (Penicillium digitatum; [10]): 2.4 mm
Water soaked Lesion (mm) (Penicillium digitatum; [10]): 1.5 mm
Fungal Sporulation (mm) (Penicillium digitatum; [11]): 1.8 mm
Water soaked Lesion (mm) (Penicillium digitatum; [11]): 0.0 mm
Fungal Sporulation (mm) (Penicillium digitatum; [12]): 2.0 mm
Water soaked Lesion (mm) (Penicillium digitatum; [12]): 0.0 mm
Fungal Sporulation (mm) (Penicillium digitatum; [13]): 2.1 mm
Water soaked Lesion (mm) (Penicillium digitatum; [13]): 0.0 mm
Gray Mold Incidence (%) (Botrytis cinerea [1]; [14]): 100.0%
Gray Mold Severity (0-4) (Botrytis cinerea [1]; [14]): 1.6
Gray Mold Incidence (%) (Botrytis cinerea [1]; [15]): 100.0%
Gray Mold Severity (0-4) (Botrytis cinerea [1]; [15]): 2.0
Gray Mold Incidence (%) (Botrytis cinerea [1]; [16]): 100.0%
Gray Mold Severity (0-4) (Botrytis cinerea [1]; [16]): 2.0
Gray Mold Incidence (%) (Botrytis cinerea [1]; [17]): 100.0%
Gray Mold Severity (0-4) (Botrytis cinerea [1]; [17]): 3.6
Gray Mold Incidence (%) (Botrytis cinerea [1]; [18]): 100.0%
Gray Mold Severity (0-4) (Botrytis cinerea [1]; [18]): 1.4
Gray Mold Incidence (%) (Botrytis cinerea [1]; [19]): 100.0%
Gray Mold Severity (0-4) (Botrytis cinerea [1]; [19]): 2.0
Gray Mold Incidence (%) (Botrytis cinerea [1]; [20]): 100.0%
Gray Mold Severity (0-4) (Botrytis cinerea [1]; [20]): 2.0
Gray Mold Incidence (%) (Botrytis cinerea [1]; [21]): 100.0%
Gray Mold Severity (0-4) (Botrytis cinerea [1]; [21]): 3.4
Gray Mold Incidence (%) (Botrytis cinerea [1]; [22]): 94.4%
Gray Mold Severity (0-4) (Botrytis cinerea [1]; [22]): 0.5
Gray Mold Incidence (%) (Botrytis cinerea [1]; [23]): 98.1%
Gray Mold Severity (0-4) (Botrytis cinerea [1]; [23]): 0.7
Gray Mold Incidence (%) (Botrytis cinerea [1]; [24]): 98.1%
Gray Mold Severity (0-4) (Botrytis cinerea [1]; [24]): 1.1
Gray Mold Incidence (%) (Botrytis cinerea [1]; [25]): 98.1%
Gray Mold Severity (0-4) (Botrytis cinerea [1]; [25]): 1.8
Gray Mold Incidence (%) (Botrytis cinerea [1]; [26]): 16.7%
Gray Mold Severity (0-4) (Botrytis cinerea [1]; [26]): 0.1
Gray Mold Incidence (%) (Botrytis cinerea [1]; [27]): 94.4%
Gray Mold Severity (0-4) (Botrytis cinerea [1]; [27]): 0.5
Gray Mold Incidence (%) (Botrytis cinerea [1]; [28]): 94.4%
Gray Mold Severity (0-4) (Botrytis cinerea [1]; [28]): 0.8
Gray Mold Incidence (%) (Botrytis cinerea [1]; [29]): 100.0%
Gray Mold Severity (0-4) (Botrytis cinerea [1]; [29]): 1.3
Gray Mold Incidence (%) (Botrytis cinerea [2]; [14]): 92.6%
Gray Mold Severity (0-4) (Botrytis cinerea [2]; [14]): 0.9
Gray Mold Incidence (%) (Botrytis cinerea [2]; [15]): 96.3%
Gray Mold Severity (0-4) (Botrytis cinerea [2]; [15]): 1.1
Gray Mold Incidence (%) (Botrytis cinerea [2]; [16]): 98.8%
Gray Mold Severity (0-4) (Botrytis cinerea [2]; [16]): 1.4
Gray Mold Incidence (%) (Botrytis cinerea [2]; [17]): 98.8%
Gray Mold Severity (0-4) (Botrytis cinerea [2]; [17]): 2.1
Gray Mold Incidence (%) (Botrytis cinerea [2]; [18]): 82.7%
Gray Mold Severity (0-4) (Botrytis cinerea [2]; [18]): 0.7
Gray Mold Incidence (%) (Botrytis cinerea [2]; [19]): 97.5%
Gray Mold Severity (0-4) (Botrytis cinerea [2]; [19]): 1.1
Gray Mold Incidence (%) (Botrytis cinerea [2]; [20]): 97.5%
Gray Mold Severity (0-4) (Botrytis cinerea [2]; [20]): 1.3
Gray Mold Incidence (%) (Botrytis cinerea [2]; [21]): 97.5%
Gray Mold Severity (0-4) (Botrytis cinerea [2]; [21]): 1.7
Gray Mold Incidence (%) (Botrytis cinerea [2]; [22]): 64.2%
Gray Mold Severity (0-4) (Botrytis cinerea [2]; [22]): 0.5
Gray Mold Incidence (%) (Botrytis cinerea [2]; [23]): 87.8%
Gray Mold Severity (0-4) (Botrytis cinerea [2]; [23]): 0.9
Gray Mold Incidence (%) (Botrytis cinerea [2]; [24]): 94.8%
Gray Mold Severity (0-4) (Botrytis cinerea [2]; [24]): 1.1
Gray Mold Incidence (%) (Botrytis cinerea [2]; [25]): 94.6%
Gray Mold Severity (0-4) (Botrytis cinerea [2]; [25]): 1.7
Gray Mold Incidence (%) (Botrytis cinerea [2]; [26]): 22.2%
Gray Mold Severity (0-4) (Botrytis cinerea [2]; [26]): 0.2
Gray Mold Incidence (%) (Botrytis cinerea [2]; [27]): 33.8%
Gray Mold Severity (0-4) (Botrytis cinerea [2]; [27]): 0.2
Gray Mold Incidence (%) (Botrytis cinerea [2]; [28]): 51.2%
Gray Mold Severity (0-4) (Botrytis cinerea [2]; [28]): 0.3
Gray Mold Incidence (%) (Botrytis cinerea [2]; [29]): 52.0%
Gray Mold Severity (0-4) (Botrytis cinerea [2]; [29]): 0.3
Percent (%) Inhibition of Internal Browning (Penicillium expansum; DRENCH, Treatment Rate 500 mg/L): 47%
Percent (%) Inhibition of Internal Browning (Penicillium expansum; DRENCH, Treatment Rate 2,000 mg/L): 69%
Percent (%) Inhibition of Internal Browning (Penicillium expansum; VAPOR, Treatment Rate 0.5 mg/L): 96%
Percent (%) Inhibition of Internal Browning (Penicillium expansum; VAPOR, Treatment Rate 2 mg/L): 100%
area of browning, vaporized compared with drenched (Penicillium expansum; apples treated in a preventative manner, nine weeks at 1° C., FIG. 22): less area (mm) of browning
percent of total pyrimethanil settled on the plates ([3]; FOG (MeOH + PYR), Settling Time 7.5 Minutes, Particle Size 5.9 (μm)): 61%
percent of total pyrimethanil settled on the plates ([3]; FOG (MeOH + PYR), Settling Time 15 Minutes, Particle Size 4.1 (μm)): 77%
percent of total pyrimethanil settled on the plates ([3]; FOG (MeOH + PYR), Settling Time 30 Minutes, Particle Size 2.8 (μm)): 100%
percent of total pyrimethanil settled on the plates ([3]; FOG (MeOH + PYR), Settling Time 60 Minutes, Particle Size 1.9 (μm)): 100%
percent of total pyrimethanil settled on the plates ([3]; FOG (MeOH + PYR), Settling Time 360 Minutes, Particle Size 0.75 (μm)): 100%
percent of total pyrimethanil settled on the plates ([3]; VAPOR (100% Technical PYR), Settling Time 60 Minutes, Particle Size 1.9 (μm)): 26%
percent of total pyrimethanil settled on the plates ([3]; VAPOR (100% Technical PYR), Settling Time 360 Minutes, Particle Size 0.75 (μm)): 91%
particle size ([3]; fog particles, 100% settled after 30 minutes): approximately 2.8 micron
estimated pyrimethanil particle size ([3]; 26% settled after 60 minutes): 1.9 micron
estimated pyrimethanil particle size ([3]; 91% settled after 360 minutes): 0.75 micron
Gray Mold Incidence (%) (Botrytis cinerea [4]; [18]): 79.2%
Gray Mold Severity (0-4) (Botrytis cinerea [4]; [18]): 0.8
Gray Mold Incidence (%) (Botrytis cinerea [4]; [19]): 87.5%
Gray Mold Severity (0-4) (Botrytis cinerea [4]; [19]): 1.3
Gray Mold Incidence (%) (Botrytis cinerea [4]; [20]): 91.7%
Gray Mold Severity (0-4) (Botrytis cinerea [4]; [20]): 1.7
Gray Mold Incidence (%) (Botrytis cinerea [4]; [21]): 100.0%
Gray Mold Severity (0-4) (Botrytis cinerea [4]; [21]): 2.1
Gray Mold Incidence (%) (Botrytis cinerea [4]; [22]): 70.8%
Gray Mold Severity (0-4) (Botrytis cinerea [4]; [22]): 0.6
Gray Mold Incidence (%) (Botrytis cinerea [4]; [23]): 79.2%
Gray Mold Severity (0-4) (Botrytis cinerea [4]; [23]): 0.8
Gray Mold Incidence (%) (Botrytis cinerea [4]; [24]): 83.3%
Gray Mold Severity (0-4) (Botrytis cinerea [4]; [24]): 1.2
Gray Mold Incidence (%) (Botrytis cinerea [4]; [25]): 100.0%
Gray Mold Severity (0-4) (Botrytis cinerea [4]; [25]): 1.7
Gray Mold Incidence (%) (Botrytis cinerea [4]; [26]): 66.7%
Gray Mold Severity (0-4) (Botrytis cinerea [4]; [26]): 0.4
Gray Mold Incidence (%) (Botrytis cinerea [4]; [27]): 75.0%
Gray Mold Severity (0-4) (Botrytis cinerea [4]; [27]): 0.5
Gray Mold Incidence (%) (Botrytis cinerea [4]; [28]): 73.8%
Gray Mold Severity (0-4) (Botrytis cinerea [4]; [28]): 0.8
Gray Mold Incidence (%) (Botrytis cinerea [4]; [29]): 95.8%
Gray Mold Severity (0-4) (Botrytis cinerea [4]; [29]): 1.1
Gray Mold Incidence (%) (Botrytis cinerea [4]; [11]): 66.7%
Gray Mold Severity (0-4) (Botrytis cinerea [4]; [11]): 0.3
Gray Mold Incidence (%) (Botrytis cinerea [4]; [12]): 70.8%
Gray Mold Severity (0-4) (Botrytis cinerea [4]; [12]): 0.4
Gray Mold Incidence (%) (Botrytis cinerea [4]; [13]): 69.6%
Gray Mold Severity (0-4) (Botrytis cinerea [4]; [13]): 0.6
Gray Mold Incidence (%) (Botrytis cinerea [4]; [30]): 91.7%
Gray Mold Severity (0-4) (Botrytis cinerea [4]; [30]): 1.0
